Results reported in US10947213B1 (Merck Patent GmbH, priority 2015, dated 2021).
Counter-ions that a name gives are not always drawn.

Biological target: T1, TLR7/NFKb HEK cells (Homo sapiens, UniProt Q9NYK1)
T1 construct: expressed in transfected cells; host or cells: HEK cells (TLR7/NFKb reporter line)
T1 sequence (Q9NYK1 27-1049): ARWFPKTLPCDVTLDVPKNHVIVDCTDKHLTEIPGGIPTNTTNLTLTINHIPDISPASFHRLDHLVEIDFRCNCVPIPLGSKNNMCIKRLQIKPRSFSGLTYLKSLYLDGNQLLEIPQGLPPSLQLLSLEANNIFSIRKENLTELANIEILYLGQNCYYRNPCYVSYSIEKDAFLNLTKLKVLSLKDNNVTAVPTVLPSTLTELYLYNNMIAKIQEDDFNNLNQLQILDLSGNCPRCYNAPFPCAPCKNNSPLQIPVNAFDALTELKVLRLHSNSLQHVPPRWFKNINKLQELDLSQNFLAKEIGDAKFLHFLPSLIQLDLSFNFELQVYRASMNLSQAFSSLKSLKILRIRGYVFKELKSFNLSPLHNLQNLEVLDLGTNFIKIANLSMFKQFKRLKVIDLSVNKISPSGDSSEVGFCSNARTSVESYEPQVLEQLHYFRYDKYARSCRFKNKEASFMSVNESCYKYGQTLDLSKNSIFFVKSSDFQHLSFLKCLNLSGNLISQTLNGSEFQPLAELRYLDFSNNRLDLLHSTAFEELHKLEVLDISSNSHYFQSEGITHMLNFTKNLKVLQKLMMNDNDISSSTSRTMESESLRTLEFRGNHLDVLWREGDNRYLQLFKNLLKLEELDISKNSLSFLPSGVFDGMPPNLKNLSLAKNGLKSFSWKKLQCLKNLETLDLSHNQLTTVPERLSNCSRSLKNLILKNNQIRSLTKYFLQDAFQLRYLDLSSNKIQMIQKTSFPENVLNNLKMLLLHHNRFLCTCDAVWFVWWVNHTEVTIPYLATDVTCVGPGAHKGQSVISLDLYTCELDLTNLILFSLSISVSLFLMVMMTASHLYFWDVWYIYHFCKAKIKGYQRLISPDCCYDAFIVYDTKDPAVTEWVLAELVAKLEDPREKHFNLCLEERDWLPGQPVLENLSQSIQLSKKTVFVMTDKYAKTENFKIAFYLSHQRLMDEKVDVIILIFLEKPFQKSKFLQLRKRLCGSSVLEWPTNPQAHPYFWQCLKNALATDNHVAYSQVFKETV
Assay: HEK Cell Assay (TLR7/NFKb reporter, Steady-Glo luciferase readout)
Type: cell-based
Conditions: 30 min compound preincubation, then R*48 agonist for 5 hours, read-out: Potency
How it was run: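 Steady-Glo luminescence after 5 h stimulation with R*48 agonist, following 30 min compound preincubation. Assay run in HEK cells carrying a TLR7/NFKb luciferase reporter, plated at 5000 cells/well and grown 24 h at 37° C (10% CO2) before treatment.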

IC50	Compound
1000 to 10000 nM	CN(C)C(=O)CCC(=O)N1CCN(c2ccc(C#N)c3nccnc23)CC1 [Compound 454, 4-[4-(8-Cyano-quinoxalin-5-yl)-piperazin-1-yl]-N,N-dimethyl-4-oxo-butyramide]
> 10000 nM	C[C@@H]1CN(c2ncc(F)c3nccnc23)C[C@H](C)O1 [Compound 455, cis-5-(2,6-Dimethyl-morpholin-4-yl)-8-fluoro-pyrido[3,4-b]pyrazine]
> 10000 nM	CCN(CC)CCNC(=O)C1CCN(c2ncc(F)c3nccnc23)CC1 [Compound 456, 1-(8-Fluoro-pyrido[3,4-b]pyrazin-5-yl)-piperidine-4-carboxylic Acid (2-diethylamino-ethyl)-amide]
> 10000 nM	C[C@H]1C[C@@H](N)CN(c2ncc(C#N)c3ncncc23)C1 [Compound 458, 5-((3R,5S)-3-Amino-5-methyl-piperidin-1-yl)-pyrido[4,3-d]pyrimidine-8-carbonitrile hydrochloride]
1000 to 10000 nM	C[C@H]1C[C@@H](N)CN(c2ncc(F)c3nccnc23)C1 [Compound 459, (3R,5S)-1-(8-Fluoro-pyrido[3,4-b]pyrazin-5-yl)-5-methyl-piperidin-3-ylamine hydrochloride]
> 10000 nM	C[C@H]1C[C@@H](NC(=O)CN(C)C)CN(c2ncc(F)c3nccnc23)C1 [Compound 460, 2-Dimethylamino-N-[(3R,5S)-1-(8-fluoro-pyrido[3,4-b]pyrazin-5-yl)-5-methyl-piperidin-3-yl]-acetamide]
< 1000 nM	Cc1ccc(N2C[C@@H](C)C[C@@H](N)C2)c2cccnc12 [Compound 462, (3R,5S)-5-Methyl-1-(8-methyl-quinolin-5-yl)-piperidin-3-ylamine hydrochloride]
< 1000 nM	CN(C)CCNC(=O)N1CCN(c2ccc(C#N)c3nccnc23)CC1 [Compound 463, 4-(8-Cyano-quinoxalin-5-yl)-piperazine-1-carboxylic Acid (2-dimethylamino-ethyl)-amide]
< 1000 nM	O=C(N[C@@H]1CNC[C@@H]1F)C1CCN(c2ccc(C(F)(F)F)c3ncccc23)CC1 [Compound 464, 1-(8-Trifluoromethyl-quinolin-5-yl)-piperidine-4-carboxylic acid ((3R,4S)-4-fluoro-pyrrolidin-3-yl)-amide hydrochloride]
< 1000 nM	C[C@H]1C[C@@H](N(C)C(=O)CC(C)(C)N)CN(c2ccc(C(F)(F)F)c3ncccc23)C1 [Compound 465, 3-Amino-3,N-dimethyl-N-[(3R,5S)-5-methyl-1-(8-trifluoromethyl-quinolin-5-yl)-piperidin-3-yl]-butyramide]
1000 to 10000 nM	Cc1ccc(N2C[C@@H](C)C[C@@H](NC(=O)CN3CCOCC3)C2)c2cccnc12 [Compound 466, N-[(3R,5S)-5-Methyl-1-(8-methyl-quinolin-5-yl)-piperidin-3-yl]-2-morpholin-4-yl-acetamide]
< 1000 nM	C[C@@H]1CN(c2ccc(C#N)c3nccnc23)C[C@H](CN2CCC(N3CCOCC3)CC2)O1 [Compound 467, 8-[(2R,6S)-2-methyl-6-{[4-(morpholin-4-yl)piperidin-1-yl]methyl}morpholin-4-yl]quinoxaline-5-carbonitrile]
< 1000 nM	C[C@@H]1CN(c2ccc(C#N)c3nccnc23)C[C@H](C(=O)NC2CCN(C)CC2)O1 [Compound 468, (2R,6R)-4-(8-cyanoquinoxalin-5-yl)-6-methyl-N-(1-methylpiperidin-4-yl)morpholine-2-carboxamide]
1000 to 10000 nM	C[C@H]1C[C@@H](NC(=O)CN(C)C)CN(c2ccc(F)c3ncccc23)C1 [Compound 469, 2-Dimethylamino-N-[(3R,5S)-1-(8-fluoro-quinolin-5-yl)-5-methyl-piperidin-3-yl]-acetamide]
1000 to 10000 nM	C[C@H]1C[C@@H](NC(=O)CN2CCOCC2)CN(c2ccc(F)c3ncccc23)C1 [Compound 470, N-[(3R,5S)-1-(8-Fluoro-quinolin-5-yl)-5-methyl-piperidin-3-yl]-2-morpholin-4-yl-acetamide]
< 1000 nM	C[C@H]1C[C@@H](NC(=O)CC2CCN(C)CC2)CN(c2ccc(F)c3ncccc23)C1 [Compound 471, N-[(3R,5S)-1-(8-Fluoro-quinolin-5-yl)-5-methyl-piperidin-3-yl]-2-(1-methyl-piperidin-4-yl)-acetamide]

IC50	Compound
< 1000 nM	C#CC(=O)N[C@@H]1C[C@H](C)CN(c2ccc(C(F)(F)F)c3ncccc23)C1 [Compound 472, Propynoic acid [(3R,5S)-5-methyl-1-(8-trifluoromethyl-quinolin-5-yl)-piperidin-3-yl]-amide]
< 1000 nM	C#CCC(=O)N[C@@H]1C[C@H](C)CN(c2ccc(C(F)(F)F)c3ncccc23)C1 [Compound 473, But-3-ynoic acid [(3R,5S)-5-methyl-1-(8-trifluoromethyl-quinolin-5-yl)-piperidin-3-yl]-amide]
1000 to 10000 nM	C[C@H]1C[C@@H](NC(=O)CNS(C)(=O)=O)CN(c2ccc(C(F)(F)F)c3ncccc23)C1 [Compound 474, 2-Methanesulfonylamino-N-[(3R,5S)-5-methyl-1-(8-trifluoromethyl-quinolin-5-yl)-piperidin-3-yl]-acetamide]
< 1000 nM	C[C@H]1C[C@@H](NC(=O)[C@@H](N)CO)CN(c2ccc(C(F)(F)F)c3ncccc23)C1 [Compound 476]
< 1000 nM	C[C@H]1C[C@@H](NC(=O)NCCN(C)C)CN(c2ccc(C(F)(F)F)c3ncccc23)C1 [Compound 477, 1-(2-Dimethylamino-ethyl)-3-[(3R,5S)-5-methyl-1-(8-trifluoromethyl-quinolin-5-yl)-piperidin-3-yl]-urea]
< 1000 nM	C[C@H]1C[C@@H](NC(=O)CC2(N)CCCCC2)CN(c2ccc(C(F)(F)F)c3ncccc23)C1 [Compound 483, 2-(1-Amino-cyclohexyl)-N-[(3R,5S)-5-methyl-1-(8-trifluoromethyl-quinolin-5-yl)-piperidin-3-yl]-acetamide]
< 1000 nM	C[C@H]1C[C@@H](NC(=O)CC2(O)CCCCC2)CN(c2ccc(C(F)(F)F)c3ncccc23)C1 [Compound 484, 2-(1-Hydroxy-cyclohexyl)-N-[(3R,5S)-5-methyl-1-(8-trifluoromethyl-quinolin-5-yl)-piperidin-3-yl]-acetamide]
< 1000 nM	C[C@H]1C[C@@H](NC(=O)CC(C)(C)O)CN(c2ccc(C(F)(F)F)c3ncccc23)C1 [Compound 485]
< 1000 nM	Cc1c(F)cc(N2C[C@@H](C)C[C@@H](N)C2)c2cccnc12 [Compound 488, (3R,5S)-1-(7-Fluoro-8-methyl-quinolin-5-yl)-5-methyl-piperidin-3-ylamine hydrochloride]
< 1000 nM	Cc1cc(F)c(N2C[C@@H](C)C[C@@H](N)C2)c2cccnc12 [Compound 489, (3R,5S)-1-(6-Fluoro-8-methyl-quinolin-5-yl)-5-methyl-piperidin-3-ylamine]
1000 to 10000 nM	N#Cc1ccc(N2C[C@H](N)C[C@H](F)C2)c2nccnc12 [Compound 499, 8-((3R,5S)-3-Amino-5-fluoro-piperidin-1-yl)-quinoxaline-5-carbonitrile hydrochloride]
> 10000 nM	N#Cc1ccc(N2C[C@@H](N)C[C@@H](F)C2)c2nccnc12 [Compound 501, 8-((3S,5R)-3-Amino-5-fluoro-piperidin-1-yl)-quinoxaline-5-carbonitrile hydrochloride]
1000 to 10000 nM	CN1CCN(CC(=O)N[C@@H]2C[C@H](F)CN(c3ccc(C#N)c4nccnc34)C2)CC1 [Compound 502, N-[(3R,5S)-1-(8-Cyano-quinoxalin-5-yl)-5-fluoro-piperidin-3-yl]-2-(4-methyl-piperazin-1-yl)-acetamide]
< 1000 nM	CN1CCN(CC(=O)NC2CN(c3ccc(C#N)c4nccnc34)CC(F)(F)C2)CC1 (centres unmarked) [Compound 503, N-[1-(8-Cyano-quinoxalin-5-yl)-5,5-difluoro-piperidin-3-yl]-2-(4-methyl-piperazin-1-yl)-acetamide]
1000 to 10000 nM	CC(C)(N)CC(=O)NC1CN(c2ccc(C#N)c3nccnc23)CC(F)(F)C1 (centres unmarked) [Compound 505, 3-Amino-N-[1-(8-cyano-quinoxalin-5-yl)-5,5-difluoro-piperidin-3-yl]-3-methyl-butyramide hydrochloride]
1000 to 10000 nM	CC(Cl)C(=O)NC1CN(c2ccc(C#N)c3nccnc23)CC(F)(F)C1 (centres unmarked) [Compound 506, 2-Chloro-N-[1-(8-cyano-quinoxalin-5-yl)-5,5-difluoro-piperidin-3-yl]-propionamide]
